The text below walks through data of US20030186947A1, “Compounds having activity as inhibitors of cytochrome P450RAI” (priority 2000, published 2003).

Data set [1] relates to skin of hairless mice. The conditions noted are these: topical in acetone, once daily days 1 through 5, mean ±SD, range 0-21. The text has this: This irritation is a direct result of activation of the RAR nuclear receptors. Analysis of retinoid topical irritation is also a highly reproducible method of determining in vivo retinoid potency. The SKH1-hrBR or hairless mouse provides a convenient animal model of topical irritation, since retinoid-induced skin flaking and abrasion can be readily scored by eye (Standeven et al., “Specific antagonist of retinoid toxicity in mice.” Toxicol. Appl. Pharmacol. 138:169-175, (1996); Thacher, et al., “Receptor specificity of retinoid-induced hyperplasia. Effect of RXR-selective agonists and correlation with topical irritation”. J. Pharm. Exp. Ther., 282:528-534, (1997)).
Female hairless mice (Crl:SKH1-hrBR), 5-7 weeks old, were obtained from Charles River Breeding Labs (Wilmington, Mass.). Animals were about 6 weeks old at the start of the experiments. Food (Purina Rodent Chow 5001) and reverse osmosis water were provided ad libitum. Mice were housed individually throughout the dosing period. In some experiments, mice that fit within a defined weight range, e.g., 21-25 g, were selected from the available stock and then randomly assigned to the various treatment groups, using body weight as the randomization variable.
The compounds to be tested were dissolved in acetone for application to the backs of the mice.
Mice were treated topically on the back in a volume of 4.0 ml/kg (0.07-0.12 ml) adjusted daily so as to deliver a fixed dose of test compound per g body weight. Doses are disclosed as nmol/25 g.
The mice were weighed daily and the dorsal skin was graded daily using separate semi-quantitative scales to determine flaking and abrasion. These flaking and abrasion scores were combined with weight change (if any) to create a cutaneous toxicity score (Blackjack score).
A visual grading scale was used for characterizing topical irritation on a daily basis. The grading scale used is as follows:
The flaking and abrasion observations were combined with body weight observations to calculate a single, semiquantitative topical or cutaneous “toxicity score” as detailed below. The toxicity score (also known as “blackjack score” since the theoretical maximum is 21) takes into account the maximal severity, and the time of onset of skin flaking and abrasions and the extent of weight between the first and last days of the experiment. Below are listed the seven numerical components of the toxicity score and an explanation of how those values are combined to calculate the toxicity score.
Flaking onset score (2) and average severity score (3) are summed and divided by two. The quotient is added to the maximal severity score (1). Composite flaking scores are calculated for each individual animal in a group, averaged, and rounded to the nearest integer. Values can range from 0-9.
Abrasion onset score (5) and average severity score (6) are summed and divided by two. The quotient is added to the maximal severity score (4). Composite abrasion scores are calculated for each individual animal in a group, averaged and rounded to the nearest integer. Values can range from 0-8.
Composite flaking score, composite abrasion score, and systemic toxicity score are summed to give the “toxicity score.” Toxicity scores are calculated for each individual animal in a group, averaged, and rounded to the nearest integer. Values can range from 0-21 and are expressed in Table 1A below as the mean ±SD of the values for a group.

In data set [2] the target is T1, RARα (Homo sapiens, UniProt P10276).
T1 sequence (P10276 183-417 limits assumed): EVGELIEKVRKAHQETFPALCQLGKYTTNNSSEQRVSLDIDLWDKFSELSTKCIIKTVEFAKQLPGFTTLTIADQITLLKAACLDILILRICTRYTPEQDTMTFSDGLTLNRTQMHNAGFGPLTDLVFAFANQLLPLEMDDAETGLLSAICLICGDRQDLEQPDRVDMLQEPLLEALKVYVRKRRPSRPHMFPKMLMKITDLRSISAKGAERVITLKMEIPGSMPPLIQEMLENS
Kind of data set: chimeric receptor transactivation assay. It is filed as cell-based. The conditions noted are these: value in parentheses. The text has this: (§1) Assays described below measure the ability of a compound to bind to, and/or activate various retinoid receptor subtypes. When in these assays a compound binds to a given receptor subtype and activates the transcription of a reporter gene through that subtype, then the compound is considered an agonist of that receptor subtype. […] In the below described assays the ability of the compounds to bind to RARα, RARβ, RARγ, RXRα, RXRβ and RXRγ receptors, and the ability or inability of the compounds to activate transcription of a reporter gene through these receptor subtypes can be tested.
(§2) As far as specific assays are concerned, a chimeric receptor transactivation assay which tests for agonist-like activity in the RARα, RARβ, and RARγ, receptor subtypes, and which is based on work published by Feigner P. L. and Holm M (1989) Focus, 112 is described in detail in U.S. Pat. No. 5,455,265. The specification of U.S. Pat. No. 5,455,265 is hereby expressly incorporated by reference. The numeric results obtained with several preferred compounds of this invention in this assay are shown below in Table 1.
(§3) A holoreceptor transactivation assay and a ligand binding assay which measure the antagonist/agonist like activity of the compounds of the invention, or their ability to bind to the several retinoid receptor subtypes, respectively, are described in published PCT Application No. WO WO93/11755 (particularly on pages 30-33 and 37-41) published on Jun. 24, 1993, the specification of which is also incorporated herein by reference. A detailed experimental procedure for holoreceptor transactivations has been described by Heyman et al. Cell 68, 397-406, (1992); Allegretto et al. J. Biol. Chem. 268, 26625-26633, and Mangelsdorf et al. The Retinoids: Biology, Chemistry and Medicine, pp 319-349, Raven Press Ltd., New York, which are expressly incorporated herein by reference. The results obtained in this assay are expressed in EC50 numbers, as they are also in the chimeric receptor transactivation assay. The results of ligand binding assay are expressed in Kd numbers. (See Cheng et al. Biochemical Pharmacology Vol. 22 pp 3099-3108, expressly incorporated herein by reference.)

Data set [3] addresses T2, RARγ (Homo sapiens, UniProt P13631).
T2 sequence (P13631 185-419 limits assumed): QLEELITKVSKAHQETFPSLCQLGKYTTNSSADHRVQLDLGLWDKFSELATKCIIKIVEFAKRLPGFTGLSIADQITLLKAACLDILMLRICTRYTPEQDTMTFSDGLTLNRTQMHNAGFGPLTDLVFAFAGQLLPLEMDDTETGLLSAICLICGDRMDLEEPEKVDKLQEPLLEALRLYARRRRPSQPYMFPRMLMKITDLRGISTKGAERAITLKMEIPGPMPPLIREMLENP
Kind of data set: chimeric receptor transactivation assay. It is filed as cell-based. The conditions noted are these: value in parentheses.
Text: as §1, §2, §3

In data set [4] the target is T3, RARβ (Homo sapiens, UniProt P10826).
T3 sequence (P10826 183-417 limits assumed): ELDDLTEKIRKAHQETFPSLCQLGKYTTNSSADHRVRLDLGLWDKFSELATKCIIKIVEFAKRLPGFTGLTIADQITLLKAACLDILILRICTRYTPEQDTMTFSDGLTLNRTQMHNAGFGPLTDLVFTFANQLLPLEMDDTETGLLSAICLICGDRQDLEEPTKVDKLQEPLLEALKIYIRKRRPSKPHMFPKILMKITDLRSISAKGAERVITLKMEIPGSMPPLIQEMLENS
In words: chimeric receptor transactivation assay. It is filed as cell-based. To be noted: value in parentheses.
Text: as §1
As far as specific assays are concerned, a chimeric receptor transactivation assay which tests for agonist-like activity in the RARα, RARβ, and RARγ, receptor subtypes, and which is based on work published by Feigner P. L. and Holm M (1989) Focus, 112 is described in detail in U.S. Pat. No. 5,455,265. The specification of U.S. Pat. No. 5,455,265 is hereby expressly incorporated by reference.
as §3, with “A detailed experimental procedure for holoreceptor transactivations has been described by Heyman et al. Cell 68, 397-406, (1992); Allegretto et al. J. Biol. Chem. 268, 26625-26633, and Mangelsdorf et al. The Retinoids: Biology, Chemistry and Medicine, pp 319-349, Raven Press Ltd., New York, which are expressly incorporated herein by reference.” left out

Where two headings read alike, the source gives them in different places.

As for `CCN(Cc1ccc(C#Cc2ccc(CC(=O)O)cc2)cc1C)C1CC1` [Compound 131], the figures for the “Cutaneous Toxicity Score (Blackjack Score)” value in data set [1] (100 nmole (nmol/25 g)), in data set [1] (300 nmole (nmol/25 g)) and in data set [1] (1000 nmole (nmol/25 g)) were 1 ± 1, 0 ± 1 and 1 ± 1, respectively.
As to `CC1(C)CCC(=O)c2ccc(C#Cc3ccc(CC(=O)O)c(F)c3)cc21` [Compound 15, [2-Fluoro-4-(8.8-dimethyl-5-oxo-5,6,7,8-tetrahydro-naphthalene-2-yl-ethynyl)phenyl]-acetic acid], the “Cutaneous Toxicity Score (Blackjack Score)” value in data set [1] (100 nmole (nmol/25 g)) is 1 ± 1; in data set [1] (1000 nmole (nmol/25 g)), 5 ± 2.
For the compound `CCc1cc(C#Cc2ccc(C(=O)O)cc2)ccc1C1(OCc2ccccc2)CC1` [Compound 93, 4-[4-(1-Benzyloxycyclopropyl)-3-ethyl-phenylethynyl]-benzoic acid], in data set [2], the “RAR (EFFICACY) α” value was “(114)”. The “RAR (EFFICACY) γ” value in data set [3] is on record as “(55)”. Besides, the “RAR (EFFICACY) β” value in data set [4] is recorded as “(39)”.
As to `Cc1cc(C#Cc2ccc(C(=O)O)cc2)ccc1C1(OC(C)C)CC1` [Compound 85, 4-[4-(1-Isopropoxycyclopropyl)-3-methyl-phenylethynyl]-benzoic acid], the “RAR (EFFICACY) α” value in data set [2] is recorded as “(60)”. Moreover, in data set [3], the “RAR (EFFICACY) γ” value is given as “(65)”. Besides, the “RAR (EFFICACY) β” value in data set [4] was “(77)”.
`CCCNC1(c2ccc(C#Cc3ccc(C(=O)O)cc3)cc2)CC1` [Compound 108, 4-[4-(1-Propylamino-cyclopropyl)-phenylethynyl]-benzoic acid]: the “RAR (EFFICACY) α” value in data set [2] is “(15)”. Moreover, the “RAR (EFFICACY) γ” value in data set [3] was “(10)”. Moreover, the “RAR (EFFICACY) β” value in data set [4] is listed as “(36)”.
On to `CC1(C)CCC(=O)c2ccc(C#Cc3ccc(C(=O)O)c(F)c3)cc21` [Compound 10, 2-Fluoro-4-(8,8-dimethyl-5-oxo-5,6,7,8-tetrahydro-naphthalen-2yl-ethynyl)-benzoic acid], for which the “RAR (EFFICACY) α” value in data set [2] was “(146)”. Further, in data set [3], the “RAR (EFFICACY) γ” value is reported as “(94)”. Further, the “RAR (EFFICACY) β” value in data set [4] is “(86)”.
